Columns and labels:
GSK3 = conditions: cited from earlier work
human CD8+ T cells [1] = assay: Screening of GSK3 inhibitors: cytokine polyfunctionality (IFN-γ+TNF-α+) of CD8+ T cells after anti-CD3/anti-CD28 stimulation; assay type: cell-based; conditions: FIG. 12A, in words
Description: (§1) FIG. 12. Screening molecules for reprogramming human CD8^+ T cells Total CD8^+ T cells were purified and treated for 12 hs with titrated doses of GSK3 inhibitors or DMSO vehicle control. After drug washout, cells were stimulated for 48 hs with plate-bound anti-CD3/anti-CD28 antibodies (at 1 mg/mL), followed by flow cytometry analyses. A. Upon stimulation, intracellular cytokine and phospho-protein staining was performed, the latter for the detection of phospho-S6 and phospho-AKT proteins (indicative of activation of mTORC1 and mTORC2 pathways, respectively). The fold change in the frequency of IFN-γ^+TNF-α^+ and pS6^+pAKT^+ cells induced by the treatment with each GSK3 inhibitor, relative to DMSO control, was analyzed. […] B. Fold change in the expression of the indicated markers and memory phenotypes induced by anti-CD3/anti-CD28 antibody stimulation relative to unstimulated cells (at least 3 donors per condition). TCM: T central memory; TEM: T effector memory; TTM: T transitional memory; TTE: T terminal effector; TSCM: T stem cell memory.
(§2) For reprogramming of CD8^+ T cells followed by polyclonal stimulation, cells were isolated by negative magnetic bead sorting (Stemcell Technologies). For reprogramming of CD8^+ T cells followed by antigen-specific stimulation, PBMC and magnetically separated CD8^+ T cells and non-CD8^+ T cells were used (REAlease® CD8 MicroBead Kit; Miltenyi Biotech). Then, CD8^+ T cells were treated with a GSK3 inhibitor (6-Bromoindirubin-3′-oxime; BIO; Sigma-Aldrich), at 3 μM, or an equivalent concentration of dimethyl sulfoxide (DMSO) vehicle control, in complete medium, for 12 hs at 37° C., 5% CO2. Non-CD8 cells were left resting during this time in complete medium. CD8^+ T cells were washed with complete medium and stimulated with the peptide pool in presence of non-CD8 T cells.
(§3) In some experiments, cells were culture in RPMI medium without glucose (MP Biomedicals). CD8^+ T cell proliferation was evaluated by CFSE dilution (at 1 μM, Thermo Fisher Scientific). In additional experiments, reprogrammed CD8^+ T cells were stimulated with IL-7 or IL-15 (both at 10 ng/mL; R&D) and cultured for 6 days. In all the cases, cells were cultured at a density of 2×10^6 cells/mL.
(§4) After cultures, cells were stained with the LIVE/DEAD Fixable Aqua Dead Cell Stain kit (Thermo Fisher Scientific), with anti-CD3 Alexa Fluor 700 or APC efluor 780 and anti-CD8 PE Texas Red antibodies, accordingly. […] In some experiments, cells were stained with APC-conjugated dextramers (Immudex), incubated for 15 minutes at room temperature. Additional surface staining panels included anti-HLA-DR Superbright 780, anti-CD38 Superbright 600, anti-PD-1 BV421, anti-LAG-3 APC efluor 780, anti-TIM3 PE Cy7, and anti-TIGIT BV786 antibodies, or anti-CD122 PE and anti-CD215 FITC antibodies. The BD Transcription Factor Buffer Set kit (BD Biosciences) was used for cell fixation and permeabilization. […] Cell acquisition was performed using LSR II or ARIA III flow cytometers (both from BD Biosciences), and data were analyzed with FlowJo v.10 software (BD Biosciences).
The inventors explored GSK3 inhibitors to expand the array of molecules that could be used for CD8^+ T cell reprogramming. They implemented a screening approach that combined the evaluation of cytokine polyfunctionality of CD8^+ T cells (IFN-γ+TNFα+) vs the activation of mTORC1 and mTORC2 pathways (pS6+pAKT+) upon treatment with the GSK3 inhibitors and subsequent polyclonal stimulation.

human CD8+ T cells [2] = assay: Screening of GSK3 inhibitors: markers and memory phenotypes by flow cytometry; assay type: cell-based; conditions: FIG. 12B, in words
Description: as §1, §2, §3, §4

In the case of `O=C1Nc2cc(Br)ccc2/C1=C1/Nc2ccccc2/C1=N\O` [BIO, 6-bromoindirubin-3′-oxime], the beta-catenin phosphorylation (GSK3; Meijer L et al., 2003) is listed as “reduces”, the “phosphorylation on Tyr276/216 GSK3a/p activation site” value (GSK3; Meijer L et al., 2003) is listed as “inhibits” and the Wnt/β-catenin/TCF-1 pathway (GSK3; reference 42) is listed as “induce the activation”. The “IFN-γ+TNF-α+ cells (polyfunctionality) relative to vehicle control” value (human CD8+ T cells [1]) was “promoted”, the “CD127+ T-bet− phenotype” value (human CD8+ T cells [2]) was “preserved” and the “acquisition of T-bet, HLA-DR and CD38, PD-1 and LAG-3” value (human CD8+ T cells [2]) was “restrained”. The “phenotype / profile promoted in CD8+ T cells” value (human CD8+ T cells [2]) was “promoted a less-differentiated phenotype”.
